{"source": "patent US8202858B2", "about": "“Vasopressin V1a antagonists” (priority 2004, dated 2012)", "origin": "cited, not measured here", "biological_target": "T1, V1a vasopressin receptor (Homo sapiens, UniProt P37288)", "T1 construct": "host or cells: patients (clinical study)", "T1 sequence (P37288 whole entry)": "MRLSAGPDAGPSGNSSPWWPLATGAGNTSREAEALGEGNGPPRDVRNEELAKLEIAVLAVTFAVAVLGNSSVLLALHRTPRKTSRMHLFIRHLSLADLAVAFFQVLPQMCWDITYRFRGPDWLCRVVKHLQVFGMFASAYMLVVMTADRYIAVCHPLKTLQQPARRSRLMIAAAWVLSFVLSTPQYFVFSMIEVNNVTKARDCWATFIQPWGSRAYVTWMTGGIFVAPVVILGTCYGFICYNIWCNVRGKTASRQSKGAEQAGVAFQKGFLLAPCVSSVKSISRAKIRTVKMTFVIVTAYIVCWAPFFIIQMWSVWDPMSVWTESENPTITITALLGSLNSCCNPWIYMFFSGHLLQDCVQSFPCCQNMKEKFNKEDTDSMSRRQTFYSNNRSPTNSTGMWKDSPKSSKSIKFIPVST", "conditions": "patients with dysmenorrhoea, compared to placebo", "data": [{"smiles": "COc1ccc(S(=O)(=O)N2c3ccc(Cl)cc3[C@](O)(c3ccccc3Cl)[C@@H]2C(=O)N2CCC[C@H]2C(N)=O)cc1OC", "note": "[SR49059]", "values": [{"measurement": "amount of additional pain-killer taken", "result": "dose-related decrease in the amount of additional pain-killer taken"}, {"measurement": "pain", "result": "dose-related decrease in pain"}]}]}
